Experimental findings from ChEMBL document CHEMBL1909046, “DrugMatrix in vitro pharmacology data” are described below.

The nature of experiment [1]: DRUGMATRIX: Atrial Natriuretic Factor (ANF) radioligand binding (ligand: [125I] ANF (rat)). To be noted: Not Active = under 50% inhibition at 10 µM. The class given is cell membranes, Cavia porcellus, Dunkin-Hartley, Adrenal gland, Membrane.
A further experiment addresses Substance-P receptor (Homo sapiens, UniProt P25103). Format: cell membranes, CHO, Membrane. To be noted: cho.
Experiment [2] addresses Prostaglandin G/H synthase 1 (Homo sapiens, UniProt P23219). In words: biochemical. The class given is tissue-based, Platelet. To be noted: platelet.
A short description of experiment [3]: DRUGMATRIX: GABAA, Flunitrazepam, Central radioligand binding (ligand: [3H] Flunitrazepam). Format: cell membranes, Rattus norvegicus, Wistar, Brain, Membrane. To be noted: Not Active = under 50% inhibition at 10 µM.
Experiment [4] can be described thus: DRUGMATRIX: Glutamate, NMDA, Agonism radioligand binding (ligand: [3H] CGP-39653). Format: cell membranes, Rattus norvegicus, Wistar, Cerebral cortex, Membrane. To be noted: Not Active = under 50% inhibition at 10 µM.
Another experiment addresses Glycine receptor (Rattus norvegicus, UniProt P22771+P24524+P07727+P20781). Format: cell membranes, Wistar, Spinal cord, Membrane.
The target of experiment [5] is T1, Muscarinic acetylcholine receptor M2 (Homo sapiens, UniProt P08172). Further: in other assays of this panel Not Active means under 50% inhibition at 10 µM.
T1 sequence (P08172 whole entry): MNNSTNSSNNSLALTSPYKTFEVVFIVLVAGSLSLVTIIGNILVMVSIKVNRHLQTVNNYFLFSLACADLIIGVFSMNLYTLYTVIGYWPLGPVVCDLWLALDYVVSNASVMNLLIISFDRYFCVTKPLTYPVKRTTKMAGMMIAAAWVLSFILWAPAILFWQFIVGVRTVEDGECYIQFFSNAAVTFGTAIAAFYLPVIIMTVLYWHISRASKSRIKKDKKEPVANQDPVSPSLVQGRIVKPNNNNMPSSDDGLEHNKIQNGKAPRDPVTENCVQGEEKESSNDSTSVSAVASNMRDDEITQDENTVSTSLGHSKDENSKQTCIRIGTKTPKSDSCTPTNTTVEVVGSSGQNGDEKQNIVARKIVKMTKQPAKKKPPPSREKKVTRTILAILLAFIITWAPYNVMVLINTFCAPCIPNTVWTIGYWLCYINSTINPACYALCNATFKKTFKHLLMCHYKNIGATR
Format: cell membranes, CHO-K1, Membrane. To be noted: cho-k1.

Sequence of Prostaglandin G/H synthase 1 (P23219 whole entry): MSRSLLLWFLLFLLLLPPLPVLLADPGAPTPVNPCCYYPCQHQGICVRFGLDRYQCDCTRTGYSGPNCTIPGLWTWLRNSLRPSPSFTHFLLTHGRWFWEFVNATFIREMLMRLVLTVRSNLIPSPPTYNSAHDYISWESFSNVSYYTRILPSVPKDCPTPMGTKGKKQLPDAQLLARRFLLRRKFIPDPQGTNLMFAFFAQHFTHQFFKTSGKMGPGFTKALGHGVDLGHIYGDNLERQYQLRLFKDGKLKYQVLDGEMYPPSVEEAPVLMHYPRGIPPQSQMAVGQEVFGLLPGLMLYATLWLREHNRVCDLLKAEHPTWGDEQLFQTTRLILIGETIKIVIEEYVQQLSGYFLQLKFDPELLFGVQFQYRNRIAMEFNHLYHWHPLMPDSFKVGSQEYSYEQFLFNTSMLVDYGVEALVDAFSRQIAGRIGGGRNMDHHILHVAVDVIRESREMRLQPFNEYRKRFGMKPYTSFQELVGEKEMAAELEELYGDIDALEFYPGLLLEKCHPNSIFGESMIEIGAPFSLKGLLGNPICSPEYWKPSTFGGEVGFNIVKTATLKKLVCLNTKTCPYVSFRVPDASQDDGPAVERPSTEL
Sequence of Substance-P receptor (P25103 whole entry): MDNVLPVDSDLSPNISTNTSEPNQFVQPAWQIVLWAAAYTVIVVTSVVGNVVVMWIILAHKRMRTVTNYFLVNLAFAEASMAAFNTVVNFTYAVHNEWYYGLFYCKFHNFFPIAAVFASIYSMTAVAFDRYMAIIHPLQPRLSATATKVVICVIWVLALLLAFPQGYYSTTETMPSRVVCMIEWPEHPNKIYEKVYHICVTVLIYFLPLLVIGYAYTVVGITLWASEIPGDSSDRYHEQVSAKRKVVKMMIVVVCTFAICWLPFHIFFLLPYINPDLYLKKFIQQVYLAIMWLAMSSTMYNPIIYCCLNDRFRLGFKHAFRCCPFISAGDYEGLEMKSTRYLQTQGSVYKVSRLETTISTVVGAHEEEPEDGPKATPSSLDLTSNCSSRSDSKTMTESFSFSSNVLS

By IC50 is commonly meant the concentration at which inhibition is half-maximal. Usually Ki stands for a dissociation constant, usually derived from enzyme kinetics or from competition with a known ligand. As for `C[S+](C)[O-]` [DIMETHYL SULFOXIDE], the IC50 result (in experiment [1]; against Substance-P receptor; in experiment [2]; in experiment [3]; in experiment [4]; against Glycine receptor) was “Not Active” throughout. Moreover, in experiment [5], the 50% inhibitory concentration (IC50) entry is “Not Active”. Moreover, the Ki entry in experiment [1], in experiment [3] and in experiment [4] was “Not Active” in each case.
As for `CC1=NN(c2ccccc2)C(=O)C1` [EDARAVONE], the IC50 result (in experiment [1]; at Substance-P receptor; in experiment [2]; in experiment [3]; in experiment [4]; on Glycine receptor) was “Not Active” throughout. Also, the IC50 result in experiment [5] was “Not Active”. Moreover, the inhibition constant Ki entry in experiment [1], in experiment [3] and in experiment [4] was “Not Active” throughout.
For `CC(C)C[C@H]1C(=O)N2CCC[C@H]2[C@]2(O)O[C@](NC(=O)[C@@H]3C=C4c5cccc6[nH]cc(c56)C[C@H]4N(C)C3)(C(C)C)C(=O)N12` [ERGOCRYPTINE], the 50% inhibitory concentration (IC50) entry (in experiment [1]; on Substance-P receptor; in experiment [2]; in experiment [3]; in experiment [4]; at Glycine receptor) was “Not Active” throughout. Besides, the IC50 result in experiment [5] is recorded as “Not Active”. Besides, the Ki result in experiment [1], in experiment [3] and in experiment [4] was “Not Active” throughout.
Turning to `C[C@]12CC[C@@H]3c4ccc(O)cc4CC[C@H]3[C@@H]1C[C@@H](O)[C@@H]2O` [ESTRIOL], the IC50 entry (in experiment [1]; on Substance-P receptor; in experiment [2]; in experiment [3]; in experiment [4]; against Glycine receptor) was “Not Active” throughout. Also, the IC50 entry in experiment [5] is listed as “Not Active”. Also, the Ki result in experiment [1], in experiment [3] and in experiment [4] was “Not Active” each time.
Take `C#C[C@]1(O)CC[C@H]2[C@@H]3CCC4=CC(=O)CC[C@]4(C)[C@H]3CC[C@@]21C` [ETHISTERONE]: the IC50 result (in experiment [1]; at Substance-P receptor; in experiment [2]; in experiment [3]; in experiment [4]; against Glycine receptor) was “Not Active” throughout. The IC50 entry in experiment [5] is on record as “Not Active”. The Ki entry in experiment [1], in experiment [3] and in experiment [4] was “Not Active” throughout.
`CC(O)(P(=O)(O)O)P(=O)(O)O` [ETIDRONIC ACID]: the IC50 result (in experiment [1]; at Substance-P receptor; in experiment [2]; in experiment [3]; in experiment [4]; against Glycine receptor) was “Not Active” in each case. The IC50 entry in experiment [5] is “Not Active”. For the same compound, the Ki result in experiment [1], in experiment [3] and in experiment [4] was “Not Active” throughout.
With `CC(C)(C(=O)O)c1ccc(C(O)CCCN2CCC(C(O)(c3ccccc3)c3ccccc3)CC2)cc1` (stereo not given) [FEXOFENADINE], the IC50 entry (in experiment [1]; on Substance-P receptor; in experiment [2]; in experiment [3]; in experiment [4]; on Glycine receptor) was “Not Active” in each case. In experiment [5], the IC50 entry is on record as “Not Active”. The Ki result in experiment [1], in experiment [3] and in experiment [4] was “Not Active” in each case.
For the compound `CN1CCN(c2c(F)cc3c(=O)c(C(=O)O)cn(CCF)c3c2F)CC1` [FLEROXACIN], the IC50 entry (in experiment [1]; at Substance-P receptor; in experiment [2]; in experiment [3]; in experiment [4]; at Glycine receptor) was “Not Active” in each case. Also, the IC50 result in experiment [5] was “Not Active”. The Ki entry in experiment [1], in experiment [3] and in experiment [4] was “Not Active” in each case.
On to `O=c1[nH]c(=O)n([C@H]2C[C@H](O)[C@@H](CO)O2)cc1F` [FLOXURIDINE], for which the IC50 entry (in experiment [1]; on Substance-P receptor; in experiment [2]; in experiment [3]; in experiment [4]; at Glycine receptor) was “Not Active” each time. Besides, the IC50 result in experiment [5] is recorded as “Not Active”. In addition, the Ki result in experiment [1], in experiment [3] and in experiment [4] was “Not Active” in each case.
As for `COC(=O)Nc1nc2cc(C(=O)c3ccc(F)cc3)ccc2[nH]1` [FLUBENDAZOLE], the IC50 result (in experiment [1]; against Substance-P receptor; in experiment [2]; in experiment [3]; in experiment [4]; against Glycine receptor) was “Not Active” each time. In addition, the IC50 entry in experiment [5] is recorded as “Not Active”. Further, the Ki result in experiment [1], in experiment [3] and in experiment [4] was “Not Active” each time.
Turning to `CC(=O)OCC(=O)[C@@]1(O)CC[C@H]2[C@@H]3CCC4=CC(=O)CC[C@]4(C)[C@@]3(F)[C@@H](O)C[C@@]21C` [FLUDROCORTISONE ACETATE], the IC50 entry (in experiment [1]; on Substance-P receptor; in experiment [2]; in experiment [3]; in experiment [4]; against Glycine receptor) was “Not Active” throughout. In experiment [5], the IC50 result is “Not Active”. The Ki entry in experiment [1], in experiment [3] and in experiment [4] was “Not Active” each time.
`CCOC(=O)c1ncn2c1CN(C)C(=O)c1cc(F)ccc1-2` [FLUMAZENIL]: the concentration for half-maximal inhibition (IC50) result in experiment [1] was “Not Active”; against Substance-P receptor, “Not Active”; in experiment [2] it was “Not Active”; in experiment [3] (read-out: IC50), 3.87 nM; in experiment [4], “Not Active”; on Glycine receptor, “Not Active”. Moreover, in experiment [5], the IC50 result is listed as “Not Active”. Moreover, the Ki entry in experiment [1] is “Not Active”; in experiment [3] (read-out: Ki), 3.15 nM; in experiment [4], “Not Active”.
As for `CC(=O)OCC(=O)[C@@]12OC(C)(C)O[C@@H]1C[C@H]1[C@@H]3C[C@H](F)C4=CC(=O)C=C[C@]4(C)[C@@]3(F)[C@@H](O)C[C@@]12C` [FLUOCINONIDE], the IC50 entry (in experiment [1]; against Substance-P receptor; in experiment [2]; in experiment [3]; in experiment [4]; against Glycine receptor) was “Not Active” throughout. For the same compound, the IC50 entry in experiment [5] was “Not Active”. Further, the Ki entry in experiment [1], in experiment [3] and in experiment [4] was “Not Active” throughout.
In the case of `O=C(O)P(=O)(O)O` [FOSCARNET], the IC50 result (in experiment [1]; on Substance-P receptor; in experiment [2]; in experiment [3]; in experiment [4]; against Glycine receptor) was “Not Active” throughout. Also, in experiment [5], the 50% inhibitory concentration (IC50) result is recorded as “Not Active”. In addition, the Ki entry in experiment [1], in experiment [3] and in experiment [4] was “Not Active” in each case.
On to `Cc1ccc(C)c(OCCCC(C)(C)C(=O)O)c1` [GEMFIBROZIL], for which the IC50 entry (in experiment [1]; at Substance-P receptor; in experiment [2]; in experiment [3]; in experiment [4]; against Glycine receptor) was “Not Active” throughout. In experiment [5], the IC50 entry was “Not Active”. Further, the Ki entry in experiment [1], in experiment [3] and in experiment [4] was “Not Active” throughout.
On to `O=c1c(-c2ccc(O)cc2)coc2cc(O)cc(O)c12` [GENISTEIN], for which the IC50 result (in experiment [1]; against Substance-P receptor; in experiment [2]; in experiment [3]; in experiment [4]; against Glycine receptor) was “Not Active” in each case. The IC50 result in experiment [5] is “Not Active”. The Ki result in experiment [1], in experiment [3] and in experiment [4] was “Not Active” in each case.
For `CCC1=C(C)CN(C(=O)NCCc2ccc(S(=O)(=O)NC(=O)N[C@H]3CC[C@H](C)CC3)cc2)C1=O` [GLIMEPIRIDE], the IC50 result (in experiment [1]; against Substance-P receptor; in experiment [2]; in experiment [3]; in experiment [4]; at Glycine receptor) was “Not Active” in each case. Moreover, the IC50 entry in experiment [5] is given as “Not Active”. In addition, the Ki entry in experiment [1], in experiment [3] and in experiment [4] was “Not Active” in each case.
On to `Nc1cc(-c2ccncc2)c[nH]c1=O` [INAMRINONE], for which the IC50 entry (in experiment [1]; on Substance-P receptor; in experiment [2]; in experiment [3]; in experiment [4]; at Glycine receptor) was “Not Active” in each case. Besides, the IC50 entry in experiment [5] was “Not Active”. Further, the Ki result in experiment [1], in experiment [3] and in experiment [4] was “Not Active” each time.
